Measurements taken from US10821160B2, “L-asparaginase variants and fusion proteins with reduced L-glutaminase activity and enhanced stability” (priority 2016, dated 2020).
Values joined by “and” are separate entries in the source; they are usually repeats but may differ in a detail not shown here. Equal entries are not always repeated.

Key:
[1] = molecular target: T1, Erwinia chrysanthemi L-asparaginase, wild type (ErA-WT), SEQ ID NO:1 (Dickeya chrysanthemi, UniProt P06608); experiment: L-asparaginase activity, continuous spectroscopic enzyme-coupled assay; format: biochemical; conditions: 37° C
T1 construct: lacking the first 21-amino acid residue signal peptide; His6-SUMO (yeast Smt3p) (N, cleaved yes); made in house; host or cells: E. coli BL21(DE3) C41
Description: (§1) In brief, the assay measures the production of L-aspartate through the 1:1 oxidation of reduced NADH. The conversion of NADH to NAD^+ was measured spectrophotometrically as a decrease in absorbance at 340 nm at 37° C. All measurements were taken in triplicate. Rates were fit to the Michaelis-Menten equation using SIGMAPLOT software (Systat Software Inc).
(§2) The parameters that define the asparagine-depleting power of such enzyme drugs are of significance. […] Enzymologists often combine these two parameters into a single value (kcat/Km) that is thought to represent the efficiency of the enzyme.
(§3) Using colorimetric enzyme-coupled assays, L-asparaginase and L-glutaminase activity of the enzymes was determined.

[2] = molecular target: T2, Erwinia chrysanthemi L-asparaginase (ErA) variant E63Q-S254N (ErA-DM1), SEQ ID NO:3 (Dickeya chrysanthemi, UniProt P06608, E84Q/S275N); format: biochemical
T2 construct: lacking the first 21-amino acid residue signal peptide; His6-SUMO (yeast Smt3p) (N, cleaved yes); made in house; host or cells: E. coli BL21(DE3) C41
Description: (§6) L-asparaginase activity was determined using a continuous spectroscopic enzyme-coupled assay as previously described (Schalk, et al. (2014) J. Biol. Chem. 289:33175-33186). In brief, the assay measures the production of L-aspartate through the 1:1 oxidation of reduced NADH. The conversion of NADH to NAD^+ was measured spectrophotometrically as a decrease in absorbance at 340 nm at 37° C. All measurements were taken in triplicate. Rates were fit to the Michaelis-Menten equation using SIGMAPLOT software (Systat Software Inc).

[3] = molecular target: Erwinia chrysanthemi L-asparaginase (ErA) variant E63Q (ErA-E63Q), SEQ ID NO:2 (Dickeya chrysanthemi, UniProt P06608, E84Q); conditions: 37° C
Description: as §1, with “L-asparaginase activity was determined using a continuous spectroscopic enzyme-coupled assay as previously described (Schalk, et al. (2014) J. Biol. Chem. 289:33175-33186). In brief,” for “In brief,”
as §2, §3

[4] = molecular target: T3, Erwinia chrysanthemi L-asparaginase (ErA) variant A31I-E63Q-S254Q-D84C (ErA-TM2-D84C) (Dickeya chrysanthemi, UniProt P06608, A52I/D105C/E84Q/S275Q); experiment: L-asparaginase activity, comparison with ErA-TM2; format: biochemical
T3 construct: lacking the first 21-amino acid residue signal peptide; made in house
Description: as §1, with “L-asparaginase activity was determined using a continuous spectroscopic enzyme-coupled assay as previously described (Schalk, et al. (2014) J. Biol. Chem. 289:33175-33186). In brief,” for “In brief,”
(§4) The resulting […] protein was expressed, purified and PEGylated with mPEG-10K.

[5] = molecular target: T4, 10K PEGylated Erwinia chrysanthemi L-asparaginase (ErA) variant A31I-E63Q-S254Q-D84C (10K PEGylated-ErA-TM2-D84C) (Dickeya chrysanthemi, UniProt P06608, A52I/D105C/E84Q/S275Q); experiment: L-asparaginase activity, comparison with ErA-TM2; format: biochemical
T4 construct: lacking the first 21-amino acid residue signal peptide; made in house
Description: as §1, with “L-asparaginase activity was determined using a continuous spectroscopic enzyme-coupled assay as previously described (Schalk, et al. (2014) J. Biol. Chem. 289:33175-33186). In brief,” for “In brief,”
as §4

[6] = molecular target: T5, Escherichia coli L-asparaginase, wild type (EcA-WT), SEQ ID NO:9 (Escherichia coli, UniProt P00805); experiment: L-asparaginase activity, continuous spectroscopic enzyme-coupled assay; format: biochemical; conditions: 37° C
T5 sequence (P00805 with tags, fused parts or gaps): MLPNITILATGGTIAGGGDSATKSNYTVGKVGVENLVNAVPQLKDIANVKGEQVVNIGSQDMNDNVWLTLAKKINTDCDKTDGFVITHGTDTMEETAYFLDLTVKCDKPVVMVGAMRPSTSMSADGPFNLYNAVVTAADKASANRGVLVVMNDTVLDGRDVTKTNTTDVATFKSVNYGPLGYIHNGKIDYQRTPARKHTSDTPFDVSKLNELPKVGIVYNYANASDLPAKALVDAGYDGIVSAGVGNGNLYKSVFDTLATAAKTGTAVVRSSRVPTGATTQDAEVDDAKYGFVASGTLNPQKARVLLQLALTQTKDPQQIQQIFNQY
Description: as §1, with “L-asparaginase activity was determined using a continuous spectroscopic enzyme-coupled assay as previously described (Schalk, et al. (2014) J. Biol. Chem. 289:33175-33186). In brief,” for “In brief,”
as §2, with “enzyme. […] Therefore, the ErA enzyme was selected for developing a variant with low L-glutaminase activity.” for “enzyme.”

[7] = molecular target: T6, Erwinia chrysanthemi L-asparaginase (ErA) variant E63Q-S254Q (ErA-DM3), SEQ ID NO:5 (Dickeya chrysanthemi, UniProt P06608, E84Q/S275Q); format: biochemical; conditions: 37° C
T6 construct: lacking the first 21-amino acid residue signal peptide; His6-SUMO (yeast Smt3p) (N, cleaved yes); made in house; host or cells: E. coli BL21(DE3) C41
Description: as §1, with “L-asparaginase activity was determined using a continuous spectroscopic enzyme-coupled assay as previously described (Schalk, et al. (2014) J. Biol. Chem. 289:33175-33186). In brief,” for “In brief,”
as §2, §3

[8] = molecular target: T7, Erwinia chrysanthemi L-asparaginase (ErA) variant A31I-E63Q-S254N (ErA-TM1), SEQ ID NO:7 (Dickeya chrysanthemi, UniProt P06608, A52I/E84Q/S275N); format: biochemical; conditions: 37° C
T7 construct: lacking the first 21-amino acid residue signal peptide; His6-SUMO (yeast Smt3p) (N, cleaved yes); made in house; host or cells: E. coli BL21(DE3) C41
Description: as §6

[9] = molecular target: Erwinia chrysanthemi L-asparaginase (ErA) variant A31I-E63Q-S254Q (ErA-TM2), SEQ ID NO:6 (Dickeya chrysanthemi, UniProt P06608, A52I/E84Q/S275Q); format: biochemical; parameters: lacking the first 21-amino acid residue signal peptide; His6-SUMO (yeast Smt3p) (N, cleaved yes); made in house; host or cells: E. coli BL21(DE3) C41
Description: as §1, with “L-asparaginase activity was determined using a continuous spectroscopic enzyme-coupled assay as previously described (Schalk, et al. (2014) J. Biol. Chem. 289:33175-33186). In brief,” for “In brief,”
as §3

[10] = tested on: Erwinia chrysanthemi L-asparaginase (ErA) variants ErA-E63Q, ErA-DM2 (A31I-E63Q) and ErA-DM1 (E63Q-S254N); experiment: L-asparaginase activity of the mutants as a group vs ErA-WT; format: biochemical; conditions: Asn
Description: as §1, with “L-asparaginase activity was determined using a continuous spectroscopic enzyme-coupled assay as previously described (Schalk, et al. (2014) J. Biol. Chem. 289:33175-33186). In brief,” for “In brief,”
(§5) Using colorimetric enzyme-coupled assays, L-asparaginase and L-glutaminase activity of the enzymes was determined. […] Seventeen of the 18 mutants had reduced L-glutaminase activity (Table 7). However, for most of the mutants, this decrease was concomitant with a decline in the L-asparaginase activity. Using the criteria of (i) ≥60% retained L-asparaginase activity (relative to Erw-WT) and (ii) ≤5% L-glutaminase versus and L-asparaginase activity, mutants ErA-E63Q, ErA-S254P, ErA-A31I+E63Q and ErA-S254N+E63Q were selected for further study.

[11] = molecular target: T8, Erwinia chrysanthemi L-asparaginase (ErA) variant A31I-E63Q (ErA-DM2), SEQ ID NO:4 (Dickeya chrysanthemi, UniProt P06608, A52I/E84Q); format: biochemical; conditions: 37° C
T8 construct: lacking the first 21-amino acid residue signal peptide; His6-SUMO (yeast Smt3p) (N, cleaved yes); made in house; host or cells: E. coli BL21(DE3) C41
Description: as §1, with “L-asparaginase activity was determined using a continuous spectroscopic enzyme-coupled assay as previously described (Schalk, et al. (2014) J. Biol. Chem. 289:33175-33186). In brief,” for “In brief,”
as §5

[12] = molecular target: T9, Erwinia chrysanthemi L-asparaginase (ErA) variant S254P (ErA-S254P) (Dickeya chrysanthemi, UniProt P06608, S275P); format: biochemical; conditions: 37° C
T9 construct: lacking the first 21-amino acid residue signal peptide; His6-SUMO (yeast Smt3p) (N, cleaved yes); made in house; host or cells: E. coli BL21(DE3) C41
Description: as §1, with “L-asparaginase activity was determined using a continuous spectroscopic enzyme-coupled assay as previously described (Schalk, et al. (2014) J. Biol. Chem. 289:33175-33186). In brief,” for “In brief,”
as §5

NC(=O)C[C@H](N)C(=O)O [Asn, L-asparagine]
kobs @20 μM ([1]; 20 μM Asn): 50.7 s⁻¹ | kobs @50 μM ([1]; 50 μM Asn): 105.3 s⁻¹ | kobs @20 μM ([2]; 20 μM Asn, 37° C): 18.9 s⁻¹ | kobs @50 μM ([2]; 50 μM Asn, 37° C): 36.3 s⁻¹ | kcat ([2]; Asn, 37° C): 169.8 ± 1.5 s⁻¹ | increase in Asn Km ([2]; Asn, relative to ErA-WT): 4 fold | kobs @20 μM ([3]; 20 μM Asn): 46.3 s⁻¹ | kobs @50 μM ([3]; 50 μM Asn): 92.2 s⁻¹ | Km ([3]; Asn): 48.1 µM and 50.7 µM | kobs at 2 mM Asn [4]: 172.8 s⁻¹ | kobs at 2 mM Asn [5]: 163.4 s⁻¹ | kobs @20 μM ([6]; 20 μM Asn): 28.3 s⁻¹ | kobs @50 μM ([6]; 50 μM Asn): 41.3 s⁻¹ | kobs @20 μM ([7]; 20 μM Asn): 14.2 s⁻¹ | kobs @50 μM ([7]; 50 μM Asn): 36.3 s⁻¹ and 30.8 s⁻¹ | Km ([7]; Asn): 179 ± 5.6 µM | kcat ([7]; Asn): 147.3 ± 1.0 s⁻¹ | kobs @20 μM ([8]; 20 μM Asn): 16.4 s⁻¹ | kobs @50 μM ([8]; 50 μM Asn): 29.2 s⁻¹ | kcat ([8]; Asn): 109.7 ± 0.8 s⁻¹ | kobs @20 μM ([9]; 20 μM Asn, 37° C): 40.8 s⁻¹ | kobs @50 μM ([9]; 50 μM Asn, 37° C): 89.1 s⁻¹ | kobs at 2 mM Asn ([9]; 2 mM Asn): 178.8 s⁻¹ | Km ([9]; Asn, 37° C): 95 ± 3.5 µM | kcat ([9]; Asn, 37° C): 261.2 ± 2.8 s⁻¹ | near wild-type kcat (range, of ErA-WT) [10]: 60-90% | kobs @20 μM ([11]; 20 μM Asn): 38.8 s⁻¹ | kobs @50 μM ([11]; 50 μM Asn): 69.7 s⁻¹ | Km ([11]; Asn): 36.9 ± 2.2 µM | kcat ([11]; Asn): 123.0 ± 1.8 s⁻¹ | kobs @20 μM ([12]; 20 μM Asn): 4.5 s⁻¹ | kobs @50 μM ([12]; 50 μM Asn): 10.5 s⁻¹ | Km ([12]; Asn): 1150 ± 25.5 µM | kcat ([12]; Asn): 250.0 ± 2.8 s⁻¹
